A word on the GI50: it is the concentration at which growth is held to half of that of the control.

The subject of data set [1] is U2OS. The data set can be described thus: Cytotoxicity against human U2OS cells harboring p53-dependent EGFP reporter gene assessed as reduction in cell viability at 5 uM after 48 hrs. The class given is cell-based. In general terms: Reporter assays use an easily measured gene product as a stand-in for the process of interest.
The subject of data set [2] is HCT-116. The data set can be described thus: Antiproliferative activity against human HCT116 p53+/+ cells assessed as growth inhibition after 24 hrs by EdU/Hoechst 33342 staining-based fluorescence analysis. The settings on record: HCT-116, 24 h. The format is functional.
In data set [3] the test system is HCT-116. The data set can be described thus: Induction of apoptosis in human HCT116 p53+ cells at 5 uM by Annexin V-FITC staining-based flow cytometric analysis relative to Nutlin-3a. The class given is functional.
Data set [4] has as its system HCT-116. Put plainly: Antiproliferative activity against human HCT116 p53-/- cells assessed as growth inhibition after 24 hrs by EdU/Hoechst 33342 staining-based fluorescence analysis. The settings on record: HCT-116, 24 h. The class given is functional.
Data set [5] concerns U2OS. Put plainly: Cytotoxicity against human U2OS cells harboring p53-dependent EGFP reporter gene assessed as reduction in cell viability at 30 uM after 48 hrs. The format is cell-based.

With `COc1ccc(CNC(=O)[C@H]2CC(=O)N(c3ccc(F)c(Cl)c3)[C@@H]2c2ccc(Cl)cc2)c(OC)c1` (racemic), the Activity entry is on record as “Toxic” with U2OS [1] and 75% in the data set with HCT-116 [3]. Further, the results for the GI50 with HCT-116 [2] and with HCT-116 [4] were 22 µM and 71 µM, respectively.
Turning to `O=C(NCc1ccccc1CN1CCCC1=O)[C@H]1CC(=O)N(c2ccc(F)c(Cl)c2)[C@@H]1c1ccc(Cl)cc1` (racemic), the results for the Activity entry in the data set on U2OS [1] and in the data set on HCT-116 [3] were “Toxic” and 123.9%, respectively. Besides, the GI50 stood at 7 µM in the data set on HCT-116 [2] and 32 µM in the data set on HCT-116 [4].
Turning to `COc1ccc(CNC(=O)[C@H]2OCC(=O)N(c3ccc(F)c(Cl)c3)[C@@H]2c2ccc(Cl)cc2)cc1` (racemic), the Activity entry is “Toxic” in the data set on U2OS [1] and 85.3% with HCT-116 [3]. In addition, the results for the GI50 in the data set with HCT-116 [2] and with HCT-116 [4] were 18 µM and 62 µM, respectively.
Regarding `Cc1cccc([C@@H]2[C@@H](C(=O)NCCc3ccc(Cl)cc3)OCC(=O)N2c2ccc(F)c(Cl)c2)c1` (racemic), the Activity result in the data set with U2OS [1] is “Toxic”; with HCT-116 [3], 14.3%.
For the compound `COc1ccc(CNC(=O)[C@H]2OCC(=O)N(c3cccc(Cl)c3)[C@@H]2c2cccc(F)c2)cc1` (racemic), the values for the Activity result in the data set on U2OS [1] and with HCT-116 [3] were “Toxic” and 0%, respectively.
As for `COc1ccc(N2C(=O)CN(C(=O)c3ccncc3)[C@H](C(=O)NCc3cccc(C)c3)[C@H]2c2ccc(Cl)cc2)cc1` (racemic), the Activity entry was “Toxic” in the data set with U2OS [1] and 11.1% with HCT-116 [3].
For `O=C(NCc1ccc(Cl)cc1)[C@H]1OCC(=O)N(c2cccc(Cl)c2)[C@@H]1c1cccc(C(F)(F)F)c1` (relative stereo), the figures for the Activity result in the data set on U2OS [1] and with HCT-116 [3] were “Toxic” and 84.6%, respectively. The GI50 was 12 µM in the data set on HCT-116 [2] and 40 µM in the data set on HCT-116 [4].
With `CN(C)c1ccc([C@@H]2[C@@H](C(=O)NCc3ccccc3CN3CCCC3=O)OCC(=O)N2c2ccc(Cc3ccncc3)cc2)cc1` (racemic), the Activity result is on record as “Toxic” in the data set with U2OS [1] and 0% with HCT-116 [3].
With `Cc1cccc([C@@H]2[C@@H](C(=O)NCc3ccc(F)cc3)OCC(=O)N2c2ccc(F)c(Cl)c2)c1` (racemic), the Activity entry is on record as “Toxic” in the data set on U2OS [1] and 17% in the data set on HCT-116 [3].
As for `COCCCN(Cc1ccc(N2CCCC2)cc1)C(=O)[C@H]1CC(=O)N(c2cccc(Cl)c2)[C@@H]1c1ccc(Cl)cc1` (relative stereo), the values for the Activity result with U2OS [1] and in the data set with HCT-116 [3] were “Toxic” and 24.1%, respectively.
Regarding `O=C(NCc1ccc2c(c1)OCO2)[C@H]1OCC(=O)N(c2cccc(Cl)c2)[C@@H]1c1ccc(Cl)cc1` (racemic), the Activity result in the data set on U2OS [1] is given as “Toxic”; in the data set with HCT-116 [3], 66.5%. Besides, the GI50 in the data set with HCT-116 [2] turned out to be 20 µM; in the data set on HCT-116 [4], 72 µM.
Consider `O=C(NCc1ccc2c(c1)OCO2)[C@H]1CC(=O)N(c2ccc(F)c(Cl)c2)[C@@H]1c1ccc(Cl)cc1` (racemic), for which the Activity entry with U2OS [1] is recorded as “Toxic”; in the data set on HCT-116 [3], 90.7%. Further, the GI50 in the data set with HCT-116 [2] was found to be 8 µM; in the data set with HCT-116 [4], 29 µM.
With `CCOc1cccc(CNC(=O)[C@H]2OCC(=O)N(c3ccccc3)[C@@H]2c2cccc(F)c2)c1` (racemic), the Activity entry is “Toxic” in the data set on U2OS [1] and 3.2% in the data set on HCT-116 [3].
Take `O=C(NCc1ccc2c(c1)OCO2)[C@H]1CC(=O)N(c2cccc(Cl)c2)[C@@H]1c1cccc(F)c1` (racemic): the Activity entry is listed as “Toxic” in the data set with U2OS [1] and 79.5% with HCT-116 [3]. In addition, the GI50 came out at 19 µM in the data set on HCT-116 [2] and 65 µM with HCT-116 [4].
As for `CC(C)(C)C[C@@H]1N[C@@H](C(=O)N[C@H]2CC[C@H](O)CC2)[C@H](c2cccc(Cl)c2F)[C@]12C(=O)Nc1cc(Cl)ccc12` [SAR-405838], the GI50 in the data set on HCT-116 [2] came out at 6 µM; in the data set on HCT-116 [4], 38 µM. Further, in the data set with HCT-116 [3], the Activity was 115%.
`COc1ccc(C2=N[C@@H](c3ccc(Cl)cc3)[C@@H](c3ccc(Cl)cc3)N2C(=O)N2CCNC(=O)C2)c(OC(C)C)c1` [NUTLIN-3]: the GI50 in the data set on HCT-116 [2] stood at 9 µM; with HCT-116 [4], 29 µM. For the same compound, in the data set on U2OS [5], the Activity result is “Toxic”.
Consider `Cc1cccc([C@@H]2[C@@H](C(=O)NCc3cccnc3)OCC(=O)N2c2ccc(F)c(Cl)c2)c1` (racemic), for which the Activity result was “Toxic” in the data set with U2OS [1] and 12.4% in the data set with HCT-116 [3].
In the case of `COc1ccc(CN(CCCN2CCOCC2)C(=O)[C@H]2OCC(=O)N(c3ccc(Cc4ccncc4)cc3)[C@@H]2c2ccc(Cl)cc2)cc1` (racemic), the Activity result is on record as “Toxic” with U2OS [1] and 1.6% in the data set on HCT-116 [3].
Regarding `COc1ccc(CNC(=O)[C@H]2OCC(=O)N(c3ccc(Cc4ccncc4)cc3)[C@@H]2c2ccc(Cl)cc2)cc1` (mixture of isomers), the Activity entry with U2OS [1] is listed as “Toxic”; with HCT-116 [3], 6.4%.
For the compound `Cc1cccc([C@@H]2[C@@H](C(=O)NCc3cccnc3)OCC(=O)N2c2ccc(F)c(F)c2)c1` (mixture of isomers), the Activity entry is “Toxic” with U2OS [1] and 6.7% in the data set on HCT-116 [3].
Take `COc1cc(CNC(=O)[C@H]2CCC(=O)N(c3ccccc3)[C@@H]2c2ccc(Cl)cc2)ccc1OC(C)C` (racemic): the values for the Activity result in the data set on U2OS [1] and in the data set on HCT-116 [3] were “Toxic” and 69.1%, respectively. In addition, the values for the GI50 in the data set on HCT-116 [2] and in the data set on HCT-116 [4] were 26 µM and 81 µM, respectively.
For the compound `C=CCOc1ccc([C@@H]2[C@@H](C(=O)NCCc3ccc(OC)c(OC)c3)N(C(=O)c3cccc(F)c3)CC(=O)N2C)cc1OCC` (racemic), the values for the Activity entry in the data set on U2OS [1] and in the data set on HCT-116 [3] were “Toxic” and 0%, respectively.
With `COCCN(Cc1ccc(N(C)C)cc1)C(=O)[C@H]1CC(=O)N(c2ccc(F)c(F)c2)[C@@H]1c1ccc(Cl)cc1` (racemic), the Activity entry in the data set on U2OS [1] was “Toxic”; in the data set with HCT-116 [3] it was 19.2%.
Consider `CC(C)Oc1ccc([C@@H]2[C@@H](C(=O)NCc3ccc(-n4ccnc4)cc3)CCC(=O)N2c2ccc(OC3CCCC3)cc2)cc1` (relative stereo), for which the Activity entry is listed as “Toxic” with U2OS [1] and 35.2% in the data set with HCT-116 [3].
The corresponding values for `CCOc1cccc(CNC(=O)[C@H]2OCC(=O)N(c3ccc(F)c(F)c3)[C@@H]2c2cccc(C)c2)c1` (mixture of isomers) are “Toxic” and 10.3%.
For `CCOc1ccc(CNC(=O)[C@H]2CC(=O)N(c3cccc(Cl)c3)[C@@H]2c2ccc(Cl)cc2)cc1` (racemic), the Activity result was “Toxic” in the data set with U2OS [1] and 27.2% in the data set on HCT-116 [3].
With `O=C(NCc1ccc2c(c1)OCCO2)[C@H]1CC(=O)N(c2ccc(F)c(F)c2)[C@@H]1c1ccc(Cl)cc1` (racemic), the Activity entry in the data set with U2OS [1] is “Toxic”; in the data set with HCT-116 [3], 16%.
`Cc1ccc(CNC(=O)[C@H]2OCC(=O)N(c3ccc(F)c(Cl)c3)[C@@H]2c2cccc(F)c2)cc1` (racemic): the Activity result in the data set with U2OS [1] is “Toxic”; with HCT-116 [3], 20.1%.
For `CCOc1cccc(CNC(=O)[C@H]2OCC(=O)N(c3ccc(F)c(Cl)c3)[C@@H]2c2cccc(F)c2)c1` (racemic) the same measures were “Toxic” and 1.6%.
With `Cc1ccc(CNC(=O)[C@H]2OCC(=O)N(c3ccc(F)c(Cl)c3)[C@@H]2c2cccc(C)c2)cc1` (racemic), the Activity result is recorded as “Toxic” in the data set on U2OS [1] and 9.5% with HCT-116 [3].
For `COCCCN(Cc1ccc(N(C)C)cc1)C(=O)[C@H]1OCC(=O)N(c2ccc(Cc3ccncc3)cc2)[C@@H]1c1ccc(Cl)cc1` (racemic) the same measures were “Toxic” and 11.1%.
For `Cc1cccc([C@@H]2[C@@H](C(=O)NCc3ccc(Cl)cc3)OCC(=O)N2c2ccc(F)c(F)c2)c1` (racemic) the same measures were “Toxic” and 7.1%.
For `CC(C)Oc1ccc([C@@H]2[C@@H](C(=O)NCc3ccccc3CN3CCOCC3)CCC(=O)N2c2ccc(Cc3ccncc3)cc2)cc1` (mixture of isomers), the Activity result in the data set on U2OS [1] is “Toxic”; with HCT-116 [3], 1.6%.
For the compound `Cc1cccc(CNC(=O)[C@@H]2[C@@H](c3ccc(Cl)cc3)N(c3ccc(Cl)cc3)C(=O)CN2C(=O)c2ccncc2)c1` (racemic), the Activity result in the data set with U2OS [1] is given as “Toxic”; in the data set on HCT-116 [3], 63.4%. Further, the results for the GI50 in the data set with HCT-116 [2] and in the data set on HCT-116 [4] were 30 µM and 80 µM, respectively.
For `O=C(NCc1ccc(-n2ccnc2)cc1)[C@H]1OCC(=O)N(c2cccc(Cl)c2)[C@@H]1c1cccc(C(F)(F)F)c1` (racemic), the results for the Activity result in the data set with U2OS [1] and in the data set with HCT-116 [3] were “Toxic” and 39.3%, respectively.
Take `CCOc1ccc(CNC(=O)[C@H]2OCC(=O)N(c3ccc(F)c(F)c3)[C@@H]2c2cccc(C)c2)cc1` (mixture of isomers): the Activity entry with U2OS [1] is “Toxic”; in the data set with HCT-116 [3], 8.5%.
Regarding `O=C(NCc1ccc2c(c1)OCO2)[C@H]1CC(=O)N(c2ccc(F)c(F)c2)[C@@H]1c1ccc(Cl)cc1` (mixture of isomers), the Activity entry with U2OS [1] was “Toxic”; with HCT-116 [3] it was 16%.
Take `Cc1cccc([C@@H]2[C@@H](C(=O)NCc3ccc(Cl)cc3)OCC(=O)N2c2ccc(F)c(Cl)c2)c1` (racemic): the Activity result with U2OS [1] is “Toxic”; in the data set on HCT-116 [3] it was 16.8%.
Regarding `CC(C)[C@@H](CS(=O)(=O)C(C)C)N1C(=O)[C@@](C)(CC(=O)O)C[C@H](c2cccc(Cl)c2)[C@H]1c1ccc(Cl)cc1` [NAVTEMADLIN], the 50% growth inhibitory concentration (GI50) in the data set with HCT-116 [2] came out at 7 µM; with HCT-116 [4] it was 33 µM. The same compound had an Activity with HCT-116 [3] of 112%.
Take `Cc1cccc([C@@H]2[C@@H](C(=O)NCc3ccccc3F)OCC(=O)N2c2ccc(F)c(Cl)c2)c1` (racemic): the results for the Activity entry with U2OS [1] and in the data set on HCT-116 [3] were “Toxic” and 18.9%, respectively.
The corresponding values for `Cc1cccc([C@@H]2[C@@H](C(=O)NCc3ccccc3)OCC(=O)N2c2ccc(F)c(Cl)c2)c1` (racemic) are “Toxic” and 3.7%.

The values are drawn from ChEMBL document CHEMBL4219248, “Design, in silico prioritization and biological profiling of apoptosis-inducing lactams amenable by the Castagnoli-Cushman reaction” (Bioorg Med Chem, 2018).
